Converted amounts (≈) assume the structure as drawn.
Tests used:
[1] = test system: Hela (human cervical cancer cell); test: Anti-human solid tumor cell growth inhibition, MTT method, 72 h; format: cell-based; conditions: for IC50 / IC90: Homo sapiens, HeLa
Source text: (§1) Human solid tumor cell lines: A549 (human lung cancer) and SK-OV-3 (ovarian cancer cell), all of which are purchased from China Center For Type Culture Collection; RKO (human colon adenocarcinoma cell) and MG-63 (osteosarcoma), all of which are purchased from Fuxiang Bio-tech Co. Ltd., Shanghai, China; Hela (human cervical cancer cell), donated by Cancer Research Institute of Zhejiang University, China.
(§2) 4000 well-growing human solid tumor cells were obtained and inoculated into wells of a 96-well cell culture plate. The culture medium used was DMEM High Glucose cell culture medium containing 10% fetal bovine serum. The plate is placed in a carbon dioxide cell incubator (5% CO2) at 37° C. and incubated for 24 hours. After adding the Polyphyllin I derivatives with 5′-acylated arabinofuranosyl group of different concentrations and mixing uniformly, the plate was continued to be placed in a carbon dioxide cell incubator (5% CO2) at 37° C. and incubated for 72 hours. Then the viable cell concentration was determined by the MTT method and the cell viability (%) after drug treatment was calculated. In this experiment, the cell viability of control group (not treated with any compound) is set as 100%.

[2] = test system: RKO (human colon adenocarcinoma cell); test: as above; format: cell-based; conditions: for IC90: Homo sapiens
Source text: as §1, §2

A549 (human lung cancer) = test: as above; format: cell-based; conditions: for IC50 / IC90: Homo sapiens, A549
Source text: as §1, §2

[3] = test system: K562/adr (drug-resistant, chronic myeloid leukemia, CML); test: Anti-leukemia cell growth inhibition, MTT method, 72 h; format: cell-based, human; conditions: for IC50 / IC90: Homo sapiens, K562/Adr
Source text: (§3) Leukemia cell lines: leukemia cell lines: K562/adr (drug-resistant, chronic myeloid leukemia, CML), NB4 (acute promyelocytic leukemia, AML), and Kasumi-1 (acute myeloid leukemia M2 type, AML-M2), all of which were donated by Cancer Research Institute of Zhejiang University, China.
(§4) 6000 well-growing leukemia cells were obtained and inoculated into wells of a 96-well cell culture plate. The culture medium used was the 1640 cell culture medium containing 10% fetal bovine serum. After adding the Polyphyllin I derivatives with 5′-acylated arabinofuranosyl of different concentrations and mixing uniformly, the plate was placed in a carbon dioxide cell incubator (5% CO2) at 37° C. and incubated for 72 hours. Then the viable cell concentration was determined by the MTT method. In this experiment, the cell viability in control group (not treated with any compound) is set as 100%. On such basis, the cell viability (%) after treatment of the compound and the 50% inhibiting concentration for the leukemia cell growth at 72 hours (IC50 value and IC90 value of 72 hours) were calculated.

[4] = test system: NB4 (acute promyelocytic leukemia, AML); test: as above; format: cell-based, human; conditions: for IC50 / IC90: Homo sapiens
Source text: as §3, §4

[5] = test system: Kasumi-1 (acute myeloid leukemia M2 type, AML-M2); test: as above; format: cell-based, human; conditions: for IC50: Homo sapiens, Kasumi 1
Source text: as §3, §4

MG-63 (osteosarcoma) = test: Anti-human solid tumor cell growth inhibition, MTT method, 72 h; format: cell-based; conditions: for IC50 / IC90: Homo sapiens, MG-63
Source text: as §1, §2

[6] = test system: SK-OV-3 (ovarian cancer cell); test: as above; format: cell-based
Source text: as §1, §2

[7] = test system: human hepatocellular carcinoma SMMC-7721 cell line; conditions: in vitro; XIAO Meifang et al. 2011; cited from earlier work
[8] = test system: nasopharyngeal carcinoma CNE-2 cell line; conditions: HUA Yonghong et al. 2011; cited from earlier work
[9] = test system: nasopharyngeal carcinoma CNE-2 cell line; conditions: DDP as positive control; HUA Yonghong et al. 2011; cited from earlier work

Row | Structure (SMILES) | IC50 [1] [µg/mL] | IC90 [1] [µg/mL] | IC90 [2] [µg/mL] | IC50 (A549 (human lung cancer)) [µg/mL] | IC90 (A549 (human lung cancer)) [µg/mL] | IC50 [3] [µg/mL] | IC90 [3] [µg/mL] | IC50 [4] [µg/mL] | IC90 [4] [µg/mL] | further results
1 | C[C@@H]1CC[C@@]2(OC1)OC1CC3C4CC=C5C[C@@H](O[C@@H]6O[C@H](CO)[C@@H](OC7O[C@@H](COC(=O)C8CC8)[C@H](O)[C@H]7O)[C@H](O)[C@H]6OC6O[C@@H](C)[C@H](O)[C@@H](O)[C@H]6O)CC[C@]5(C)C4CC[C@]3(C)C1[C@@H]2C (stereo partly drawn) [BS-PP-12] | 0.5 (≈ 0.542 µM) | 3.19 (≈ 3.46 µM) | 6.08 (≈ 6.59 µM) | 0.86 (≈ 0.932 µM) | 7.38 (≈ 7.99 µM) | 0.42 (≈ 0.455 µM) | 2.14 (≈ 2.32 µM) | 1.22 (≈ 1.32 µM) | 3.96 (≈ 4.29 µM) | IC50 [5]: 0.86 µg/mL (≈ 0.932 µM)
2 | C[C@@H]1CC[C@@]2(OC1)OC1CC3C4CC=C5C[C@@H](O[C@@H]6O[C@H](CO)[C@@H](OC7O[C@@H](COC(=O)c8cccs8)[C@H](O)[C@H]7O)[C@H](O)[C@H]6OC6O[C@@H](C)[C@H](O)[C@@H](O)[C@H]6O)CC[C@]5(C)C4CC[C@]3(C)C1[C@@H]2C (stereo partly drawn) [BS-PP-09] | 0.55 (≈ 0.57 µM) | 2 (≈ 2.07 µM) | 5.25 (≈ 5.44 µM) | 1.6 (≈ 1.66 µM) | 13 (≈ 13.5 µM) |  |  | 1.11 (≈ 1.15 µM) | 3.92 (≈ 4.06 µM) | 
3 | C[C@@H]1CC[C@@]2(OC1)OC1CC3C4CC=C5C[C@@H](O[C@@H]6O[C@H](CO)[C@@H](OC7O[C@@H](COC(=O)c8ccc(F)cc8Cl)[C@H](O)[C@H]7O)[C@H](O)[C@H]6OC6O[C@@H](C)[C@H](O)[C@@H](O)[C@H]6O)CC[C@]5(C)C4CC[C@]3(C)C1[C@@H]2C (stereo partly drawn) [BS-PP-15] | 0.68 (≈ 0.672 µM) | 3.51 (≈ 3.47 µM) | 5.13 (≈ 5.07 µM) | 1.8 (≈ 1.78 µM) | 9.9 (≈ 9.79 µM) | 0.76 (≈ 0.751 µM) | 2 (≈ 1.98 µM) | 1.19 (≈ 1.18 µM) | 3.4 (≈ 3.36 µM) | 
4 | CC(=O)OC[C@@H]1OC(O[C@H]2[C@H](O)[C@@H](OC3O[C@@H](C)[C@H](O)[C@@H](O)[C@H]3O)[C@H](O[C@H]3CC[C@@]4(C)C(=CCC5C6CC7O[C@]8(CC[C@@H](C)CO8)[C@@H](C)C7[C@@]6(C)CCC54)C3)O[C@@H]2CO)[C@H](O)[C@H]1O (stereo partly drawn) [BS-PP-11] | 0.62 (≈ 0.691 µM) | 2.57 (≈ 2.86 µM) |  | 0.83 (≈ 0.925 µM) | 10.2 (≈ 11.4 µM) | 0.42 (≈ 0.468 µM) | 2.32 (≈ 2.59 µM) | 0.94 (≈ 1.05 µM) | 2.48 (≈ 2.76 µM) | IC50 (MG-63 (osteosarcoma)): 0.33 µg/mL (≈ 0.368 µM); IC90 (MG-63 (osteosarcoma)): 0.76 µg/mL (≈ 0.847 µM)
5 | COc1ccc(C(=O)OC[C@@H]2OC(O[C@H]3[C@H](O)[C@@H](OC4O[C@@H](C)[C@H](O)[C@@H](O)[C@H]4O)[C@H](O[C@H]4CC[C@@]5(C)C(=CCC6C7CC8O[C@]9(CC[C@@H](C)CO9)[C@@H](C)C8[C@@]7(C)CCC65)C4)O[C@@H]3CO)[C@H](O)[C@H]2O)cc1 (stereo partly drawn) [BS-PP-03] |  |  | 4.5 (≈ 4.55 µM) |  |  | 0.69 (≈ 0.698 µM) |  | 1.13 (≈ 1.14 µM) | 1.96 (≈ 1.98 µM) | 
6 | C[C@@H]1CC[C@@]2(OC1)OC1CC3C4CC=C5C[C@@H](O[C@@H]6O[C@H](CO)[C@@H](OC7O[C@@H](COC(=O)c8ccc(F)cc8F)[C@H](O)[C@H]7O)[C@H](O)[C@H]6OC6O[C@@H](C)[C@H](O)[C@@H](O)[C@H]6O)CC[C@]5(C)C4CC[C@]3(C)C1[C@@H]2C (stereo partly drawn) [BS-PP-08] | 0.61 (≈ 0.613 µM) | 3.89 (≈ 3.91 µM) | 4.93 (≈ 4.95 µM) | 1.19 (≈ 1.2 µM) | 14.1 (≈ 14.1 µM) | 0.49 (≈ 0.492 µM) | 2.5 (≈ 2.51 µM) | 0.85 (≈ 0.854 µM) | 1.9 (≈ 1.91 µM) | 
7 | C[C@@H]1CC[C@@]2(OC1)OC1CC3C4CC=C5C[C@@H](O[C@@H]6O[C@H](CO)[C@@H](OC7O[C@@H](COC(=O)c8ccc(C(F)(F)F)cc8)[C@H](O)[C@H]7O)[C@H](O)[C@H]6OC6O[C@@H](C)[C@H](O)[C@@H](O)[C@H]6O)CC[C@]5(C)C4CC[C@]3(C)C1[C@@H]2C (stereo partly drawn) [BS-PP-05] |  |  | 6.82 (≈ 6.64 µM) | 1.8 (≈ 1.75 µM) | 12 (≈ 11.7 µM) |  |  |  |  | 
8 | C[C@@H]1CC[C@@]2(OC1)OC1CC3C4CC=C5C[C@@H](O[C@@H]6O[C@H](CO)[C@@H](OC7O[C@@H](COC(=O)c8ccc(F)cc8)[C@H](O)[C@H]7O)[C@H](O)[C@H]6OC6O[C@@H](C)[C@H](O)[C@@H](O)[C@H]6O)CC[C@]5(C)C4CC[C@]3(C)C1[C@@H]2C (stereo partly drawn) [BS-PP-06] |  |  | 5.13 (≈ 5.25 µM) |  |  | 0.73 (≈ 0.747 µM) | 2.66 (≈ 2.72 µM) | 0.79 (≈ 0.808 µM) | 4.09 (≈ 4.19 µM) | 
9 | C[C@@H]1CC[C@@]2(OC1)O[C@H]1C[C@H]3[C@@H]4CC=C5C[C@@H](O[C@@H]6O[C@H](CO)[C@@H](O[C@@H]7O[C@@H](CO)[C@H](O)[C@H]7O)[C@H](O)[C@H]6O[C@@H]6O[C@@H](C)[C@H](O)[C@@H](O)[C@H]6O)CC[C@]5(C)[C@H]4CC[C@]3(C)[C@H]1[C@@H]2C [PP, 4-O-arabinofuranosyl-2-O-rhamnopyranosyl-β-D-glucopyranosyldioscin, reference compound] |  |  |  |  |  |  |  |  |  | MG-63 IC50 (MG-63 (osteosarcoma)): 0.37 µg/mL; MG-63 IC90 (MG-63 (osteosarcoma)): 0.97 µg/mL; Hela IC50 [1]: 0.77 µg/mL; Hela IC90 [1]: 4.86 µg/mL; SK-OV-3 IC50 [6]: 0.70 µg/mL; SK-OV-3 IC90 [6]: 1.70 µg/mL; RKO IC90 [2]: 8.48 µg/mL; A549 IC50 (A549 (human lung cancer)): 1.86 µg/mL; A549 IC90 (A549 (human lung cancer)): 14.63 µg/mL; effect on proliferation of SMMC-7721 cells [7]: inhibit the proliferation of hepatocellular carcinoma SMMC-7721 cells in a time- and concentration-dependent manner; effects on the proliferation of CNE-2 cells [8]: time- and dose-dependent inhibitory effects; K562/adr IC50 [3]: 0.87 µg/mL; K562/adr IC90 [3]: 2.98 µg/mL; NB4 IC50 [4]: 1.84 µg/mL; NB4 IC90 [4]: 6.75 µg/mL; Kasumi-1 IC50 [5]: 0.92 µg/mL; radiosensitizing effects on CNE-2 cell line [9]: concentration-dependent radiosensitizing effects
10 | C[C@@H]1CC[C@@]2(OC1)OC1CC3C4CC=C5C[C@@H](O[C@@H]6O[C@H](CO)[C@@H](OC7O[C@@H](COC(=O)c8ccco8)[C@H](O)[C@H]7O)[C@H](O)[C@H]6OC6O[C@@H](C)[C@H](O)[C@@H](O)[C@H]6O)CC[C@]5(C)C4CC[C@]3(C)C1[C@@H]2C (stereo partly drawn) [BS-PP-10] | 0.45 (≈ 0.474 µM) | 2.01 (≈ 2.12 µM) | 5.46 (≈ 5.75 µM) | 0.86 (≈ 0.906 µM) | 10.2 (≈ 10.8 µM) | 0.45 (≈ 0.474 µM) | 2.23 (≈ 2.35 µM) | 0.83 (≈ 0.875 µM) | 2.82 (≈ 2.97 µM) | IC50 (MG-63 (osteosarcoma)): 0.33 µg/mL (≈ 0.348 µM); IC90 (MG-63 (osteosarcoma)): 0.85 µg/mL (≈ 0.896 µM); IC50 ([6]; Homo sapiens, SK-OV-3): 0.65 µg/mL (≈ 0.685 µM); IC90 ([6]; Homo sapiens, SK-OV-3): 0.97 µg/mL (≈ 1.02 µM); IC50 [5]: 0.78 µg/mL (≈ 0.822 µM)
11 | C[C@@H]1CC[C@@]2(OC1)OC1CC3C4CC=C5C[C@@H](O[C@@H]6O[C@H](CO)[C@@H](OC7O[C@@H](COC(=O)c8ccncc8)[C@H](O)[C@H]7O)[C@H](O)[C@H]6OC6O[C@@H](C)[C@H](O)[C@@H](O)[C@H]6O)CC[C@]5(C)C4CC[C@]3(C)C1[C@@H]2C (stereo partly drawn) [BS-PP-04] | 0.48 (≈ 0.5 µM) | 3.23 (≈ 3.36 µM) |  | 1 (≈ 1.04 µM) | 14.5 (≈ 15.1 µM) | 0.38 (≈ 0.396 µM) | 2.33 (≈ 2.43 µM) | 0.91 (≈ 0.948 µM) | 3.85 (≈ 4.01 µM) | 

— US9353146B2, “Acylation derivatives of paridis saponins I, preparation method therefor and application thereof” (HANGZHOU BENSHENG PHARMACEUTICAL CO., LTD., priority 2012, dated 2016)
